Results published in US20110311517A1, “Antibodies and methods for treating estrogen receptor-associated diseases” (SHENOGEN PHARMA GROUP, LTD., priority 2009, published 2011).

Tested on: implanted tumors
Assay: Comparison of anti-tumor activity of ScFv-7 with tamoxifen on tumor-bearing nude mice
Type: in vivo, BALB/c-nu female nude mice
Conditions: after 18 days of drug administration
Experimental: BALB/c-nu female nude mice were divided into 3 groups, with 7 mice in each group.
Human anti-ERα36 ScFv-7 was administered at the dose of 0.1 mg/20 g body weight/day. The positive control tamoxifen was administered at the dose of 0.33 mg/20 g body weight/day. The negative control group was administered with human IgG.
The tumor-bearing nude mice were weighed, and the volumes of the implanted tumors were measured every 3-4 days. The relative tumor volumes and tumor growth inhibition rates were calculated using Equation 2 and Equation 4 respectively. Animals received drug administration for 18 days and were terminated 24 h later. The tumors were excised from the animals and weighed. The average tumor weights and tumor growth inhibitions were calculated using Equation 4.

Which tumor inhibition rates (ScFv-7 0.1 mg/20 g body weight/day, tamoxifen 0.33 mg/20 g body weight/day) does the source give for `CC/C(=C(\c1ccccc1)c1ccc(OCCN(C)C)cc1)c1ccccc1` [tamoxifen, reference compound] here?
The tumor inhibition rates was “around 60%”.

And the “average tumor weights compared with negative group” value (p-values below 0.01)?
Its value is “significant difference”.
